Biological target: T1, human GlyT1c transporter (Homo sapiens, UniProt P48067)
T1 construct: expressed in transfected cells; host or cells: CHO cells (recombinant; line hGlyT1c_5_CHO is named for the uptake assay)
T1 sequence (P48067 1-706): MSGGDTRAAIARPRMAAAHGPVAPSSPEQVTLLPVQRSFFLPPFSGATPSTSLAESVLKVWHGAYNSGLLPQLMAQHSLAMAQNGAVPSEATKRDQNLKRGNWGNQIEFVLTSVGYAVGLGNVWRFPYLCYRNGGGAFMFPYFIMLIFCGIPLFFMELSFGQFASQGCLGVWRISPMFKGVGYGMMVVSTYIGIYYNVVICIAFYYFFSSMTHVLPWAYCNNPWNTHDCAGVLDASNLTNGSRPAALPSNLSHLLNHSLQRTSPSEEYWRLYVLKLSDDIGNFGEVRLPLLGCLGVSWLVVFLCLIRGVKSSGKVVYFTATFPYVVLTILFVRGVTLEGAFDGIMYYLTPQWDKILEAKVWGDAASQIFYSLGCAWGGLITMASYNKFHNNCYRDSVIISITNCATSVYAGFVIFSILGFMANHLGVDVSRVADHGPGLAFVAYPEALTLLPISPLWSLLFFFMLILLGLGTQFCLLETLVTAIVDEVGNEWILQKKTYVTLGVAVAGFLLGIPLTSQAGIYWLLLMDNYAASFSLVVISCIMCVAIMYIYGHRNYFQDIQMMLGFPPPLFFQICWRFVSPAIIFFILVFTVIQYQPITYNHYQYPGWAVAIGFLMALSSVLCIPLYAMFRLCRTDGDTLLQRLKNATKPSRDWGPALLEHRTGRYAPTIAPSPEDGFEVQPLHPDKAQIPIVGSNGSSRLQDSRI
Assay: Radioligand binding assay using recombinant CHO cell membranes expressing human GlyT1
Details: radioligand binding to human GlyT1c transporter-expressing membranes
Description: 2. Radioligand binding assays using recombinant CHO cell membranes expressing human GlyT1: […]

SMILES	Ki [nM]
Cn1cnc(S(=O)(=O)N2C[C@H](NC(=O)Nc3cccc(F)c3)[C@@H](c3ccc(F)cc3)C2)c1 [Example 703, 1-(3-fluorophenyl)-3-{(3R,4S)-4-(4-fluorophenyl)-1-[(1-methyl-1H-imidazol-4-yl)sulfonyl]pyrrolidin-3-yl}urea]	≤ 1000
Cn1cnc(S(=O)(=O)N2C[C@H](NC(=O)Nc3ccc(F)cc3)[C@@H](c3ccc(F)cc3)C2)c1 [Example 704, 1-(4-fluorophenyl)-3-{(3R,4S)-4-(4-fluorophenyl)-1-[(1-methyl-1H-imidazol-4-yl)sulfonyl]pyrrolidin-3-yl}urea]	≤ 1000
Cn1cnc(S(=O)(=O)N2C[C@H](NC(=O)NCc3ccccc3Cl)[C@@H](c3ccc(F)cc3)C2)c1 [Example 705, 1-(2-chlorobenzyl)-3-{(3R,4S)-4-(4-fluorophenyl)-1-[(1-methyl-1H-imidazol-4-yl)sulfonyl]pyrrolidin-3-yl}urea]	≤ 1000
Cn1cnc(S(=O)(=O)N2C[C@H](Nc3cc(Cl)c(Cl)cn3)[C@@H](c3ccc(F)cc3)C2)c1 [Example 706, 4,5-dichloro-N-{(3R,4S)-4-(4-fluorophenyl)-1-[(1-methyl-1H-imidazol-4-yl)sulfonyl]pyrrolidin-3-yl}pyridin-2-amine]	≤ 10000
Cn1cnc(S(=O)(=O)N2C[C@H](NCC3CCC(C(F)(F)F)CC3)[C@@H](c3ccc(F)cc3)C2)c1 (stereo partly drawn) [Example 707, (3R,4S)-4-(4-fluorophenyl)-1-[(1-methyl-1H-imidazol-4-yl)sulfonyl]-N-{[4-(trifluoromethyl)cyclohexyl]methyl}pyrrolidin-3-amine]	≤ 1000
CCCCC(F)(F)C(=O)N[C@H]1CN(S(=O)(=O)c2cn(C)cn2)C[C@@H]1c1ccc(F)cc1 [Example 708, 2,2-difluoro-N-{(3R,4S)-4-(4-fluorophenyl)-1-[(1-methyl-1H-imidazol-4-yl)sulfonyl]pyrrolidin-3-yl}hexanamide]	≤ 10000
Cn1cnc(S(=O)(=O)N2CC(Nc3ccc(Cl)c(C(F)(F)F)c3)C(c3ncco3)C2)c1 (stereo not shown) [Example 710, N-[4-chloro-3-(trifluoromethyl)phenyl]-1-[(1-methyl-1H-imidazol-4-yl)sulfonyl]-4-(1,3-oxazol-2-yl)pyrrolidin-3-amine]	≤ 1000
CCOc1cc(N[C@H]2CN(S(=O)(=O)c3cn(C)cn3)C[C@@H]2c2ccc(F)cc2)ncn1 [Example 715, 6-ethoxy-N-{(3R,4S)-4-(4-fluorophenyl)-1-[(1-methyl-1H-imidazol-4-yl)sulfonyl]pyrrolidin-3-yl}pyrimidin-4-amine]	≤ 1000
CCCCOc1cc(N[C@H]2CN(S(=O)(=O)c3cn(C)cn3)C[C@@H]2c2ccc(F)cc2)ncn1 [Example 717, 6-butoxy-N-{(3R,4S)-4-(4-fluorophenyl)-1-[(1-methyl-1H-imidazol-4-yl)sulfonyl]pyrrolidin-3-yl}pyrimidin-4-amine]	≤ 100
Cn1cnc(S(=O)(=O)N2C[C@H](NC(=O)CCCC(C)(F)F)[C@@H](c3ccc(F)cc3)C2)c1 [Example 735, 5,5-difluoro-N-{(3R,4S)-4-(4-fluorophenyl)-1-[(1-methyl-1H-imidazol-4-yl)sulfonyl]pyrrolidin-3-yl}hexanamide]	≤ 10000
Cn1cnc(S(=O)(=O)N2C[C@H](Nc3cc(F)ccn3)[C@@H](c3ccc(F)cc3)C2)c1 [Example 736, 4-fluoro-N-{(3R,4S)-4-(4-fluorophenyl)-1-[(1-methyl-1H-imidazol-4-yl)sulfonyl]pyrrolidin-3-yl}pyridin-2-amine]	≤ 1000
Cn1cnc(S(=O)(=O)N2C[C@H](Nc3ccc(F)cn3)[C@@H](c3ccc(F)cc3)C2)c1 [Example 737, 5-fluoro-N-{(3R,4S)-4-(4-fluorophenyl)-1-[(1-methyl-1H-imidazol-4-yl)sulfonyl]pyrrolidin-3-yl}pyridin-2-amine]	≤ 100
CC(=O)CCC(=O)N[C@H]1CN(S(=O)(=O)c2cn(C)cn2)C[C@@H]1c1ccc(F)cc1 [Example 738, N-{(3R,4S)-4-(4-fluorophenyl)-1-[(1-methyl-1H-imidazol-4-yl)sulfonyl]pyrrolidin-3-yl}-4-oxopentanamide]	> 10000
Cn1cnc(S(=O)(=O)N2C[C@H](NCCCCC(C)(F)F)[C@@H](c3ccc(F)cc3)C2)c1 [Example 739, (3R,4S)-N-(5,5-difluorohexyl)-4-(4-fluorophenyl)-1-[(1-methyl-1H-imidazol-4-yl)sulfonyl]pyrrolidin-3-amine]	≤ 100
Cn1cnc(S(=O)(=O)N2C[C@H](OCCNc3ccc(Cl)cc3)[C@@H](c3ccc(F)cc3)C2)c1 [Example 740, 4-chloro-N-[2-({(3R,4S)-4-(4-fluorophenyl)-1-[(1-methyl-1H-imidazol-4-yl)sulfonyl]pyrrolidin-3-yl}oxy)ethyl]aniline]	≤ 10000
Cn1cnc(S(=O)(=O)N2C[C@@H](Nc3ccc(F)c(OC(F)(F)F)c3)[C@H](C3CCCCO3)C2)c1 (stereo partly drawn) [Example 741, (3S,4R)-N-[4-fluoro-3-(trifluoromethoxy)phenyl]-1-[(1-methyl-1H-imidazol-4-yl)sulfonyl]-4-(tetrahydro-2H-pyran-2-yl)pyrrolidin-3-amine]	≤ 100

Now from value to compound:

Ki [nM]	SMILES
≤ 100	CC(C)COc1cc(N[C@H]2CN(S(=O)(=O)c3cn(C)cn3)C[C@@H]2c2ccc(F)cc2)ncn1 [Example 718, N-{(3R,4S)-4-(4-fluorophenyl)-1-[(1-methyl-1H-imidazol-4-yl)sulfonyl]pyrrolidin-3-yl}-6-(2-methylpropoxy)pyrimidin-4-amine]
≤ 100	Cn1cnc(S(=O)(=O)N2C[C@H](Nc3cc(OC4CCCC4)ncn3)[C@@H](c3ccc(F)cc3)C2)c1 [Example 720, 6-(cyclopentyloxy)-N-{(3R,4S)-4-(4-fluorophenyl)-1-[(1-methyl-1H-imidazol-4-yl)sulfonyl]pyrrolidin-3-yl}pyrimidin-4-amine]
≤ 100	Cn1cnc(S(=O)(=O)N2C[C@H](Nc3cc(OC4CCCCC4)ncn3)[C@@H](c3ccc(F)cc3)C2)c1 [Example 721, 6-(cyclohexyloxy)-N-{(3R,4S)-4-(4-fluorophenyl)-1-[(1-methyl-1H-imidazol-4-yl)sulfonyl]pyrrolidin-3-yl}pyrimidin-4-amine]
≤ 10	Cn1cnc(S(=O)(=O)N2C[C@H](Nc3cc(-c4ccccc4)ncn3)[C@@H](c3ccc(F)cc3)C2)c1 [Example 722, N-{(3R,4S)-4-(4-fluorophenyl)-1-[(1-methyl-1H-imidazol-4-yl)sulfonyl]pyrrolidin-3-yl}-6-phenylpyrimidin-4-amine]
≤ 100	Cc1ccccc1-c1cc(N[C@H]2CN(S(=O)(=O)c3cn(C)cn3)C[C@@H]2c2ccc(F)cc2)ncn1 [Example 723, N-{(3R,4S)-4-(4-fluorophenyl)-1-[(1-methyl-1H-imidazol-4-yl)sulfonyl]pyrrolidin-3-yl}-6-(2-methylphenyl)pyrimidin-4-amine]
≤ 100	Cc1cccc(-c2cc(N[C@H]3CN(S(=O)(=O)c4cn(C)cn4)C[C@@H]3c3ccc(F)cc3)ncn2)c1 [Example 724, N-{(3R,4S)-4-(4-fluorophenyl)-1-[(1-methyl-1H-imidazol-4-yl)sulfonyl]pyrrolidin-3-yl}-6-(3-methylphenyl)pyrimidin-4-amine]
≤ 100	Cn1cnc(S(=O)(=O)N2C[C@H](Nc3cc(-c4ccccc4F)ncn3)[C@@H](c3ccc(F)cc3)C2)c1 [Example 726, 6-(2-fluorophenyl)-N-{(3R,4S)-4-(4-fluorophenyl)-1-[(1-methyl-1H-imidazol-4-yl)sulfonyl]pyrrolidin-3-yl}pyrimidin-4-amine]
≤ 10	Cn1cnc(S(=O)(=O)N2C[C@H](Nc3cc(-c4cccc(F)c4)ncn3)[C@@H](c3ccc(F)cc3)C2)c1 [Example 727, 6-(3-fluorophenyl)-N-{(3R,4S)-4-(4-fluorophenyl)-1-[(1-methyl-1H-imidazol-4-yl)sulfonyl]pyrrolidin-3-yl}pyrimidin-4-amine]
≤ 10	Cn1cnc(S(=O)(=O)N2C[C@H](Nc3cc(-c4cccc(Cl)c4)ncn3)[C@@H](c3ccc(F)cc3)C2)c1 [Example 729, 6-(3-chlorophenyl)-N-{(3R,4S)-4-(4-fluorophenyl)-1-[(1-methyl-1H-imidazol-4-yl)sulfonyl]pyrrolidin-3-yl}pyrimidin-4-amine]
≤ 100	Cn1cnc(S(=O)(=O)N2C[C@H](NCCCCC(F)(F)F)[C@@H](c3ccc(F)cc3)C2)c1 [Example 732, (3R,4S)-4-(4-fluorophenyl)-1-[(1-methyl-1H-imidazol-4-yl)sulfonyl]-N-(5,5,5-trifluoropentyl)pyrrolidin-3-amine]
≤ 10	CCCCC(F)(F)CN[C@H]1CN(S(=O)(=O)c2cn(C)cn2)C[C@@H]1c1ccc(F)cc1 [Example 733, (3R,4S)-N-(2,2-difluorohexyl)-4-(4-fluorophenyl)-1-[(1-methyl-1H-imidazol-4-yl)sulfonyl]pyrrolidin-3-amine]
≤ 100	CCCC(F)(F)CN[C@H]1CN(S(=O)(=O)c2cn(C)cn2)C[C@@H]1c1ccc(F)cc1 [Example 734, (3R,4S)-N-(2,2-difluoropentyl)-4-(4-fluorophenyl)-1-[(1-methyl-1H-imidazol-4-yl)sulfonyl]pyrrolidin-3-amine]
